The values below come from patent US9216169B2, “Pharmaceutical composition comprising candesartan or ester thereof and chlortalidone, and use thereof” (TIANJIN INSTITUTE OF PHARMACEUTICAL RESEARCH, priority 2011, dated 2015).

For test [1] the following is noted: clinical studies; cited from earlier work.
The subject of test [2] is Spontaneously hypertensive rats (SHR). Put plainly: SBP of SHR by Tail-Cuff method, first administration and continuous administration for 14 days (Examples 8-12). Conditions: for AUC0-24h: after first administration. It is filed as in vivo, rat. The method, then: Spontaneously hypertensive rats (SHR), male, are provided by Beijing Vital River Laboratory Animal Technology Co., Ltd. The number of animal production license is SCXK (Jing) 2007-0001. Animals are raised in an observation room at the room temperature of 25±2° C. controlled by central air-conditioning system and with artificial lighting of 12 h/day. The animals are raised in separate cages sized 43×27×18 cm with 4 animals for each cage. The rats are free access to water and are fed with block fodder everyday, and the water supply is refreshed once a day. The temperature of the room for measuring the blood pressure is 26±2° C.
The blood pressure is measured by Tail-Cuff method and the hear rate is measured according to the pulse frequency. Animals are pre-trained for the blood pressure measurement for more than 2 weeks so as to adapt to the environment of measurement. Animals are placed in a isothermal bag at 37° C. to be prewarmed for 5 to 10 min for formal measurement. Blood pressures of the rats are measured from tail arteries for 2 to 3 times at rest states, and an average value is taken as each blood pressure measured value. All data are collected and preserved by a computer.
SHRs with systolic blood pressures (SBPs)>190 mmHg are selected for experiment.
Rats are randomly divided into 20 groups according to their blood pressures with each group having 8-10 rats. Animals are fasted overnight and measured for the blood pressure of pre-administration at the day of experiment, and then administered drugs in accordance with the following method:
The single-drug group is intragastrically administered candesartan (Can) or chlorthalidone (Chl), with the dosage of Can of 0.1, 0.2, 0.4 mg/kg respectively and the dosage of Chl of 0.3125, 0.625, 1.25 mg/kg respectively;
According to the clinical single-drug specification, the ratios of Can+Chl are set as follows:
For the ratio of Can:Chl=1:6.25, one dose of 0.1+0.625 mg/kg is set;
For the ratio of Can:Chl=1:3.125, two doses of 0.2+0.625 and 0.4+1.25 mg/kg are set;
For the ratio of Can:Chl=1.28:1, one dose of 0.4+0.3125 mg/kg is set;
For the ratio of Can:Chl=2.56:1, one dose of 0.4+0.15625 mg/kg is set;
The administration volumes are all 5 mL/kg. Rats are continuously administered for 14 days. SBPs are measured 2, 4, 8, 12 and 24 hours after the first administration. On the day of 3, 7, 14 days after administration, the blood pressures are measured before administration and 5 hours after administration. Areas under blood pressure reduction-time curve from 0 to 24 h and from 0 to 14 days (AUC0-24h, AUC0-14d) are calculated.
The calculated results are expressed as mean±standard error ( x±SE); statistical treatment is performed using unpaired t test between groups to compare the significance of the average difference; the interaction between drugs are determined by using factorial analysis of variance, and P<0.05 means the difference has statistical significance.

The next test has as its system patients. The settings on record: study in 1714 patients; cited from earlier work.
In test [3] the test system is Spontaneously hypertensive rats (SHR). Briefly: SBP of SHR by Tail-Cuff method, first administration and continuous administration for 14 days (Examples 8-12). It is filed as in vivo, rat.
The conditions of test [4]: cited from earlier work.
Setting [5] is: 12.5-25 mg/d of chlorthalidone, clinical studies.

In the case of `NS(=O)(=O)c1cc(C2(O)NC(=O)c3ccccc32)ccc1Cl` (stereo not shown) [Chl, Chlorthalidone], the “valid control rate of blood pressure” value in test [1] was 68.2%. Besides, the AUC0-14d in test [2] (Chl 0.3125 mg/kg i.g. for 14 days) is −125.9 mmHg · d; in test [2] (Chl 0.625 mg/kg i.g. for 14 days), −134.5 mmHg · d; in test [2] (Chl 1.25 mg/kg i.g. for 14 days), −174.2 mmHg · d; in test [3] (Chl 0.15625 mg/kg i.g. for 14 days), −36.0 mmHg · d. Also, the AUC0-24h in test [2] (Chl 0.3125 mg/kg i.g.) is given as −133.1 mmHg · h; in test [2] (Chl 0.625 mg/kg i.g.), −190.4 mmHg · h; in test [2] (Chl 1.25 mg/kg i.g.), −208.1 mmHg · h; in test [3] (Chl 0.15625 mg/kg i.g., after first administration), −47.0 mmHg · h. Besides, the “reduction of SBP compared with the basic value” with patients is given as 12.7-15.9 mmHg. Also, the “lowering of 24-hour blood pressure” value in test [4] (setting [5]) is recorded as 12.4 mmHg. In test [4] (setting [5]), the “lowering of night-time blood pressure” value is given as 13.5 mmHg. Further, in test [4] (according to Khoska), the “antihypertensive efficacy relative to that of hydrochlorothiazide” value is reported as 1.5-2 times.
